Patent publication US9801901B2, “Alginate oligomers for use in overcoming multidrug resistance in bacteria” (priority 2009, dated 2017)
Converted amounts (≈) assume the structure as drawn. Read-outs that look alike come from different tables or passages of the source. Values belong to the molecule of their own block, whether it stands above or below them.

What was measured:
[1] = tested on: Pseudomonas aeruginosa (R22, PSA, V1); experiment: MIC-assay, Mueller-Hinton broth with G-block alginate, 384-well, OD600
[2] = tested on: Acinetobacter lwoffii (Egypt, V10); experiment: as above
[3] = tested on: Acinetobacter lwoffii (6056, V22); experiment: as above
[4] = tested on: strains of Klebsiella pneumoniae displaying MDR phenotypes; experiment: MIC-assay, Mueller-Hinton broth with G-block alginate, 384-well, OD600 (Table 10); assay type: cell-based; conditions: read-out: MIC
From the text: Minimum inhibitory concentration (MICs) of different antibiotics for strains of Klebsiella pneumoniae displaying MDR phenotypes in the presence of varying concentrations of OligoCF-5/20 (0-10%). (MIC values are expressed in μg ml^−1).

Streptococcus oralis = experiment: MIC-assay, Mueller-Hinton broth with G-block alginate, 384-well, OD600 (Table 12); assay type: cell-based; conditions: Streptococcus oralis (5610, V17) MDR, read-out: MIC
From the text: (§1) Minimum inhibitory concentration (MICs) of different antibiotics for strains of Streptococcus oralis and Staphylococcus aureus (MRSA) displaying MDR phenotypes in the presence of varying concentrations of OligoCF-5/20 (0-10%). (MIC values are expressed in μg ml^−1).

[5] = tested on: Staphylococcus aureus (MRSA) U50; experiment: as above; assay type: cell-based; conditions: MRSA 1040s, U50 MDR, read-out: MIC
From the text: as §1

[6] = tested on: Acinetobacter baumannii (Egypt, V9); experiment: MIC-assay, Mueller-Hinton broth with G-block alginate, 384-well, OD600
[7] = tested on: Burkholderia cepacia (1322, V23); experiment: as above
[8] = tested on: Acinetobacter baumannii (MDR ACB, Libya, V4); experiment: as above
[9] = tested on: Pseudomonas aeruginosa (MDR 301, PSA, V2); experiment: as above
[10] = tested on: Burkholderia cepacia (LMG18941, ATCC-BAA-246); experiment: as above
[11] = Table 8, G-block (OligoCF-5/20) 0%
[12] = Table 8, G-block (OligoCF-5/20) 2%
[13] = Table 8, G-block (OligoCF-5/20) 6%
[14] = Table 8, G-block (OligoCF-5/20) 10%
[15] = Table 9, G-block (OligoCF-5/20) 0%
[16] = Table 9, G-block (OligoCF-5/20) 2%
[17] = Table 9, G-block (OligoCF-5/20) 6%
[18] = Table 9, G-block (OligoCF-5/20) 10%
[19] = Klebsiella pneumoniae (5712, Wales, V12) MDR, G-block (OligoCF-5/20) 0%
[20] = Klebsiella pneumoniae (5712, Wales, V12) MDR, G-block (OligoCF-5/20) 2%
[21] = Klebsiella pneumoniae (5712, Wales, V12) MDR, G-block (OligoCF-5/20) 6%
[22] = Klebsiella pneumoniae (5712, Wales, V12) MDR, G-block (OligoCF-5/20) 10%
[23] = Klebsiella pneumoniae (IR25, India, V6) MDR, G-block (OligoCF-5/20) 0%
[24] = Klebsiella pneumoniae (IR25, India, V6) MDR, G-block (OligoCF-5/20) 2%
[25] = Klebsiella pneumoniae (IR25, India, V6) MDR, G-block (OligoCF-5/20) 6%
[26] = Klebsiella pneumoniae (IR25, India, V6) MDR, G-block (OligoCF-5/20) 10%
[27] = Klebsiella pneumoniae (K3, India, V8) MDR, G-block (OligoCF-5/20) 0%
[28] = Klebsiella pneumoniae (K3, India, V8) MDR, G-block (OligoCF-5/20) 2%
[29] = Klebsiella pneumoniae (K3, India, V8) MDR, G-block (OligoCF-5/20) 6%
[30] = Klebsiella pneumoniae (K3, India, V8) MDR, G-block (OligoCF-5/20) 10%
[31] = Pseudomonas aeruginosa, Table 8, V2, G-block (OligoCF-5/20) 0%
[32] = Pseudomonas aeruginosa, Table 8, V2, G-block (OligoCF-5/20) 2%
[33] = ATCCBAA246|LMG18941, Table 8, G-block (OligoCF-5/20) 0%
[34] = ATCCBAA246|LMG18941, Table 8, G-block (OligoCF-5/20) 2%
[35] = ATCCBAA246|LMG18941, Table 8, G-block (OligoCF-5/20) 6%
[36] = ATCCBAA246|LMG18941, Table 8, G-block (OligoCF-5/20) 10%

Compound: C[C@@H](O)[C@H]1C(=O)N2C(C(=O)O)=C(SCCN=CN)C[C@H]12 [Imipenem]
- MIC [1, 11]: 128 mg/L (≈ 428 µM)
- MIC [1, 12]: 128 mg/L (≈ 428 µM)
- MIC [1, 13]: 64 mg/L (≈ 214 µM)
- MIC [1, 14]: 16 mg/L (≈ 53.4 µM)
- MIC [2, 15]: < 2 mg/L
- MIC [2, 16]: < 2 mg/L
- MIC [2, 17]: < 2 mg/L
- MIC [2, 18]: < 2 mg/L
- MIC [3, 15]: 2 mg/L (≈ 6.68 µM)
- MIC [3, 16]: 2 mg/L (≈ 6.68 µM)
- MIC [3, 17]: 2 mg/L (≈ 6.68 µM)
- MIC [3, 18]: < 2 mg/L
- MIC [4, 19]: < 2 mg/L
- MIC [4, 20]: < 2 mg/L
- MIC [4, 21]: < 2 mg/L
- MIC [4, 22]: < 2 mg/L
- MIC [4, 23]: < 2 mg/L
- MIC [4, 24]: 2 mg/L (≈ 6.68 µM)
- MIC [4, 25]: 2 mg/L (≈ 6.68 µM)
- MIC [4, 26]: 2 mg/L (≈ 6.68 µM)
- MIC [4, 27]: 8 mg/L (≈ 26.7 µM)
- MIC [4, 28]: 16 mg/L (≈ 53.4 µM)
- MIC [4, 29]: 16 mg/L (≈ 53.4 µM)
- MIC [4, 30]: 8 mg/L (≈ 26.7 µM)
- MIC (Streptococcus oralis; G-block (OligoCF-5/20) 0%): < 0.0312 mg/L
- MIC (Streptococcus oralis; G-block (OligoCF-5/20) 2%): 16 mg/L (≈ 53.4 µM)
- MIC (Streptococcus oralis; G-block (OligoCF-5/20) 6%): 1 mg/L (≈ 3.34 µM)
- MIC (Streptococcus oralis; G-block (OligoCF-5/20) 10%): < 0.0312 mg/L
- MIC ([5]; G-block (OligoCF-5/20) 0%): 0.0625 mg/L (≈ 0.209 µM)
- MIC ([5]; G-block (OligoCF-5/20) 2%): 0.0625 mg/L (≈ 0.209 µM)
- MIC ([5]; G-block (OligoCF-5/20) 6%): 0.0312 mg/L (≈ 0.104 µM)
- MIC ([5]; G-block (OligoCF-5/20) 10%): < 0.0312 mg/L
- MIC [6, 15]: 2 mg/L (≈ 6.68 µM)
- MIC [6, 16]: < 2 mg/L
- MIC [6, 17]: 2 mg/L (≈ 6.68 µM)
- MIC [6, 18]: < 2 mg/L
- MIC [7, 11]: > 16 mg/L
- MIC [7, 12]: 16 mg/L (≈ 53.4 µM)
- MIC [7, 13]: 16 mg/L (≈ 53.4 µM)
- MIC [7, 14]: 16 mg/L (≈ 53.4 µM)
- MIC [8, 15]: 2 mg/L (≈ 6.68 µM)
- MIC [8, 16]: 2 mg/L (≈ 6.68 µM)
- MIC [8, 17]: 2 mg/L (≈ 6.68 µM)
- MIC [8, 18]: < 2 mg/L
- MIC ([9]; Pseudomonas aeruginosa): 128 mg/L (≈ 428 µM)
- MIC [9, 31]: 256 mg/L (≈ 855 µM)
- MIC [9, 32]: 256 mg/L (≈ 855 µM)
- MIC ([9]; Table 8, V2, G-block (OligoCF-5/20) 10%): 128 mg/L (≈ 428 µM)
- MIC [10, 33]: > 16 mg/L
- MIC [10, 34]: > 16 mg/L
- MIC [10, 35]: > 16 mg/L
- MIC [10, 36]: > 16 mg/L

- MIC [1, 11]: > 512 mg/L
- MIC [1, 12]: > 512 mg/L
- MIC [1, 13]: 512 mg/L (≈ 612 µM)
- MIC [1, 14]: 256 mg/L (≈ 306 µM)
- MIC [2, 15]: 4 mg/L (≈ 4.78 µM)
- MIC [2, 16]: < 1 mg/L
- MIC [2, 17]: < 1 mg/L
- MIC [2, 18]: < 1 mg/L
- MIC [3, 15]: 4 mg/L (≈ 4.78 µM)
- MIC [3, 16]: < 2 mg/L
- MIC [3, 17]: < 2 mg/L
- MIC [3, 18]: < 2 mg/L
- MIC [4, 19]: 256 mg/L (≈ 306 µM)
- MIC [4, 20]: 512 mg/L (≈ 612 µM)
- MIC [4, 21]: 512 mg/L (≈ 612 µM)
- MIC [4, 22]: 512 mg/L (≈ 612 µM)
- MIC [4, 23]: 1020 mg/L (≈ 1220 µM)
- MIC [4, 24]: > 1020 mg/L
- MIC [4, 25]: 1020 mg/L (≈ 1220 µM)
- MIC [4, 26]: > 1020 mg/L
- MIC [4, 27]: 512 mg/L (≈ 612 µM)
- MIC [4, 28]: 256 mg/L (≈ 306 µM)
- MIC [4, 29]: > 1020 mg/L
- MIC [4, 30]: > 1020 mg/L
- MIC (Streptococcus oralis; G-block (OligoCF-5/20) 0%): 8 mg/L (≈ 9.56 µM)
- MIC (Streptococcus oralis; G-block (OligoCF-5/20) 2%): 8 mg/L (≈ 9.56 µM)
- MIC (Streptococcus oralis; G-block (OligoCF-5/20) 6%): 0.0312 mg/L (≈ 0.0373 µM)
- MIC (Streptococcus oralis; G-block (OligoCF-5/20) 10%): 16 mg/L (≈ 19.1 µM)
- MIC ([5]; G-block (OligoCF-5/20) 0%): > 1020 mg/L
- MIC ([5]; G-block (OligoCF-5/20) 2%): 1020 mg/L (≈ 1220 µM)
- MIC ([5]; G-block (OligoCF-5/20) 6%): 512 mg/L (≈ 612 µM)
- MIC ([5]; G-block (OligoCF-5/20) 10%): 256 mg/L (≈ 306 µM)
- MIC [6, 15]: 8 mg/L (≈ 9.56 µM)
- MIC [6, 16]: 4 mg/L (≈ 4.78 µM)
- MIC [6, 17]: 4 mg/L (≈ 4.78 µM)
- MIC [6, 18]: 2 mg/L (≈ 2.39 µM)
- MIC [7, 11]: 512 mg/L (≈ 612 µM)
- MIC [7, 12]: 512 mg/L (≈ 612 µM)
- MIC [7, 13]: 256 mg/L (≈ 306 µM)
- MIC [7, 14]: 64 mg/L (≈ 76.5 µM)
- MIC [8, 15]: 128 mg/L (≈ 153 µM)
- MIC [8, 16]: 32 mg/L (≈ 38.2 µM)
- MIC [8, 17]: 16 mg/L (≈ 19.1 µM)
- MIC [8, 18]: 16 mg/L (≈ 19.1 µM)
- MIC [9, 31]: > 512 mg/L
- MIC [9, 32]: > 512 mg/L
- MIC ([9]; Pseudomonas aeruginosa, Table 8, V2, G-block (OligoCF-5/20) 6%): > 512 mg/L
- MIC ([9]; Pseudomonas aeruginosa, Table 8, V2, G-block (OligoCF-5/20) 10%): > 512 mg/L
- MIC [10, 33]: 256 mg/L (≈ 306 µM)
- MIC [10, 34]: 256 mg/L (≈ 306 µM)
- MIC [10, 35]: 256 mg/L (≈ 306 µM)
- MIC [10, 36]: 128 mg/L (≈ 153 µM)
Compound: CC[C@H]1OC(=O)[C@H](C)[C@@H](O[C@H]2C[C@@](C)(OC)[C@@H](O)[C@H](C)O2)[C@H](C)[C@@H](O[C@@H]2O[C@H](C)C[C@H](N(C)C)[C@H]2O)[C@](C)(O)C[C@@H](C)/C(=N\OCOCCOC)[C@H](C)[C@@H](O)[C@]1(C)O [Roxithromycin]
